Reference: US20260115162A1, “COMPOSITION OR ASSOCIATION OF COMPOUNDS PREFERABLY FOR USE IN THE TREATMENT OF NERVOUS DISEASES IN PARTICULAR NEURODEGENERATIVE DISEASES, METHOD FOR THE PREPARATION OF SUCH COMPOSITION OR ASSOCIATION OF COMPOUNDS AND USES THEREOF” (PHARMACEUTICA SAN MARCO S.R.L., priority 2022, published 2026)
Several values for one entry are separate records, joined by “and”; a condition that tells them apart may be missing. Equal values may be shown once.

Key:
mice treated with Aβ icv = test: Splash test in SHAM mice and mice treated with Aβ icv (FIG. 4); assay type: in vivo; conditions: after 7 days, HA4 200 μg, βCP 50 μg, βBA 100 μg, FE 50 μg sublingually
Experimental: The Aβ1-42, obtained from Tocris (Bristol, UK), was dissolved in sterile double-distilled pyrogenic-free water, as vehicle, to obtain a final concentration 4 μM [Colaianna M et al. 2010]. Mice were anesthetized with a solution (0.85 in ml/kg, i.p.), containing ketamine (Sigma Aldrich, Milan, Italy, 100 mg/10 ml), xylazine (Sigma Aldrich, Milan, Italy, 100 mg/10 ml) and acepromazine (prequillant, ATI Azienda Terapeutica Veterinaria Srl, 10 mg/10 ml) dissolved in saline solution. […] At the time of dissection, the correct needle track was assessed. […]
(§1) Ten μl of the solution (or vehicle alone) were administered sublingually to mice. Brain βCP, FE e βBA were quantified in a separate subset of mice at 5, 15 and 30 min after their administration.
All behavioral experiments were conducted at 5 or 30 min after sublingual administrations of βBA or vehicle in mice treated with SHAM or AP. Based on the observed behavioral results, neurochemical and biochemical quantifications were performed 30 min after administration of βCP, FE, and βBA or vehicle in SHAM- or Aβ-treated mice.
Splash test. […] The test was videotaped and later an observer, blind to the trial, scored for latency to the first grooming event and duration of self-care behavior during the period of the test (5 min).

intact mice = test: Behavioral tests on intact animals (open field, freezing); assay type: in vivo
Experimental: The trials were performed at the Department of Clinical and Experimental Medicine of the University of Foggia according to the following rationale. • 1. In the present mouse model of beta-amyloid toxicity, using validated tests in mice, we evaluated the behaviors: • a. antidepressant: Tail Suspension Test (TST); Forced Swimming Test (FST); Splash Test (ST) with latency time (sec) and self-care (sec) measurement. • b. antianxiety: Open Field Test with measurement of distance traveled (m), time spent in the wall (sec), time spent in the center (sec), center entries (n); Freezing Test (sec). • c. on memory, learning, coordination of motor skills, fear conditioning: Rotarod Test with measure of Latency to Fall, repeated after training to evaluate motor learning. • 2. We tested the protective effects with the following procedure: • a. individually: βCP, FE, βBA, DHA and HA4; • b. in association with pairs: βCP+HA4, FE+HA4, βBA+HA4, FE+βCP, βBA+FE, βBA+βCP. • c. in association, all four together: βCP+FE+βBA+HA4 • d. versus control (SHAM), • e. using the mouse model of an Aβ-induced depressive phenotype. • 3. These behavioral tests were integrated with serotonin, dopamine, noradrenaline and their metabolites prefrontal cortex and hippocampus measurement. • 4. Furthermore, we evaluated the cortical and hippocampal glutamate (GLU) levels in mice treated with AP and subsequently we tested the ability of βCP, FE, βBA and HA4, to modulate this neurochemical parameter.
βCP, FE e βBA (Merck, Cayman Chemical Company) was dissolved in sunflower oil, this vehicle was chosen in order to maintain a better tasting and higher density of the final solution thus reducing reflux through the digestive tract.
as §1
Open Field Test. Mice were placed in an open field arena and allowed to explore for 30 min [Lama A et al. 2021]. After each trial, the arena floor was cleaned with 70% ethanol to avoid inter-assay bias. The movements of mice were video recorded and analyzed by ANY-maze tracking software (Ugo Basile-Varese, Gemonio, Italy). Locomotion was evaluated through total crossing measurements.

[1] = Blood concentration of βBA by oral-sublingual vs oral-gastro-intestinal route (FIG. 1); assay type: in vivo, humans
Experimental: FIG. 1. Blood Concentration of βBA Administered by Oral-Sublingual Route Vs. Oral-Gastro-Intestinal Route. • ? 43 a, 58 kg BW • βBA administered both via os and sublingual: 10 mg=172.4 ng/g. • Maximum blood concentration via sublingual route: 95 ng/ml. • Maximum blood concentration via os: 52 ng/ml. • Δos/plasma: 1.82. • Note • 1. […] The explanation is that βBA is an excellent vasodilator, probably through the release of NO nitric oxide [Wang M et al. 2015], synergistic with the other compounds of the composition or association object of the present invention. • 2. […] Note that with the present experiment, the Δos/plasma ratio of 1.82 was the same as that found by Sterk V et al. 2004 (Table 1).

## C[C@H]1[C@H](C)CC[C@]2(C)CC[C@]3(C)C(=CC[C@@H]4[C@@]5(C)CC[C@@H](O)[C@](C)(C(=O)O)[C@@H]5CC[C@]43C)[C@H]12 [βBA, β-boswellic acid]
Mice treated with Aβ icv
  Splash test latency time (antidepressant effect): antidepressant effect
Intact mice; intact mice, preliminary experiments (unpublished observations)
  lowest dose showing antidepressant effects: 5 mg/kg
Intact mice; mouse, in vivo
  effect in behavioral tests, individually: antidepressant and anxiolytic effect
[1]; one person, 58 kg BW, 10 mg=172.4 ng/g, sublingual
  Maximum blood concentration via sublingual route: 95 ng/mL
[1]; one person, 58 kg BW, 10 mg=172.4 ng/g, via os
  Maximum blood concentration via os: 52 ng/mL
[1]; sublingual administration
  Δos/plasma: 1.81 and 1.82
[1]; via os
  reduction in blood concentration with respect to the administered dose: 67% and 70%
[1]; via os administration
  Δos/plasma: 2.97
